From patent US11466005B2, “Tricyclic compounds” (JACOBIO PHARMACEUTICALS CO., LTD., priority 2018, dated 2022)

Legend:
[1] = target: BRD4(BD1) (Homo sapiens (Human), UniProt O60885); test: BRD4(BD1) biochemical binding assay (HTRF); settings: biotinylated H4 derived acetylated peptide
Experimental: 1. BRD4(BD1) Binding Assays
The BRD4(BD1) biochemical binding assay was performed by Sundia MediTech Co. Ltd. in 384-well white plate (OptiPlate-384, PerkinElmer) using HTRF technology.
Briefly, 20 nL of compounds were transferred to the 384-well plate by Echo® 550 liquid handler (Labcyte, USA), then 5 μL of BRD4(BD1) (Reaction Biology Company, RD-11-157) solution or the assay buffer was added to each well. After incubating at RT for 15 min, 5 μL of the biotinylated H4 derived acetylated peptide (synthesized by GL Biochem (Shanghai) Ltd) and 10 μL of the detection solution (Cisbio Assay) were added to each well. After incubating for 1 h at RT, the HTRF signal was measure at 615 nm and 665 nm using the EnVision Multilabel Plate Reader (PerkinElmer, USA). Results were analyzed with a two-wavelength signal ratio: intensity (665 nm)/intensity (615 nm). The inhibition percentage in the presence of the compound was calculated according to the equation, Percent inhibition=(Max−Signal)/(Max−Min)*100%. Fit the data in GraphPad Prism V5.0 software (San Diego, Calif.) to obtain IC50 values with nonlinear regression analysis using equation, Y=Bottom+(Top−Bottom)/(1+10^((Log IC50−X)×HillSlope), where Y stands for inhibition percentage and X stands for compound concentration.

[2] = tested on: MV-4-11 cells; test: MV-4-11 cell proliferation assay (MTS); type: cell-based; settings: Homo sapiens, MV4-11, 72 h, 3 days culture
Experimental: 2. Cell Proliferation Assay
MV-4-11 cell proliferation analysis was conducted by the MIS (3-(4,5-dimethylthiazol-2-yl)-5-(3-carboxymethoxyphenyl)-2-(4-sulfophenyl)-2H-tetrazolium, inner salt) assay. Briefly, MV-4-11 cells will be cultured in IMDM (Iscove's Modified Dubecco's Medium) medium supplemented with 10% (v/v) FBS (fetal bovine serum), under the temperature of 37° C., […] and 95% humidity. The cells will be harvested respectively during the logarithmic growth period and counted with hemocytometer. The cell viability is over […] by trypan blue exclusion. Adjust MV-4-11 cells concentrations to 1.2×10^5 cells/mL with complete medium. Add 100 μL cell suspensions to 96-well plates (triplicates for each cell concentration), the final cell densities are 1.2×10^4 cells/well. The next day, dissolve the test compound with DMSO as stock solution. Dispense 5 μL of the stock solution in 1 mL culture media and add 25 μL drug media into 96-well plates. After serially diluting with culture media, the final concentration of the compound will be 0, 0.03, 0.1, 0.3, 1, 3, 10, 30, 100 nM. The plates will be cultured for 3 days, then measured by means of MTS assay. Add PMS (phenazinium methosulfate) solution to MITS solution (1:20) immediately before addition to the culture plate containing cells. Pipet 20 μL of the combined MTS/PMS Solution into each well of the 96 well assay plate containing 100 μL of cells in culture medium. Incubate the plate for 1-4 hours at 37° C. in a humidified, 5% CO2 atmosphere. Record the absorbance at 490 nm using a microplate spectrophotometer (Envision®, PeikinElmer). Fit the data using GraphPad 5.0 and obtain IC50 values.

IC50 [1] [nM]	IC50 [2] [nM]	SMILES
0.59	1.24	Cc1cccnc1C(C1CCOCC1)n1c2cc(-c3c(C)nnn3C)cnc2c2c1c(C(C)(C)O)nn2C (stereo not shown) [Compound 5, 2-(6-(1,4-Dimethyl-1H-1,2,3-triazol-5-yl)-1-methyl-4-((3-methylpyridin-2-yl)(tetrahydro-2H-pyran-4-yl)methyl)-1,4-dihydropyrazolo[3′,4′:4,5]pyrrolo[3,2-b]pyridin-3-yl)propan-2-ol]
1.9	24.7	CC(=O)Nc1nn(C)c2c3ncc(-c4c(C)nnn4C)cc3n([C@H](c3ccccc3)C3CCOCC3)c12 [Compound 29, (S)—N-(6-(1,4-dimethyl-1H-1,2,3-triazol-5-yl)-1-methyl-4-(phenyl(tetrahydro-2H-pyran-4-yl)methyl)-1,4-dihydropyrazolo[3′,4′:4,5]pyrrolo[3,2-b]pyridin-3-yl)acetamide]
0.3	3.6	Cc1nnn(C)c1-c1cnc2c3c(c(C(N)=O)nn3C)n(C(c3ccccc3)C3CCOCC3)c2c1 (stereo not shown) [Compound 16, 6-(1,4-Dimethyl-1H-1,2,3-triazol-5-yl)-1-methyl-4-(phenyl(tetrahydro-2H-pyran-4-yl)methyl)-1,4-dihydropyrazolo[3′,4′:4,5]pyrrolo[3,2-b]pyridine-3-carboxamide]
0.49	1.1	Cc1nnn(C)c1-c1cnc2c3c(c(C(C)(C)O)nn3C)n([C@H](c3ccccc3)C3CCOCC3)c2c1 [Compound 6, (S)-2-(6-(1,4-dimethyl-1H-1,2,3-triazol-5-yl)-1-methyl-4-(phenyl(tetrahydro-2H-pyran-4-yl)methyl)-1,4-dihydropyrazolo[3′,4′:4,5]pyrrolo[3,2-b]pyridin-3-yl)propan-2-ol]
0.68	0.91	COc1cccnc1C(C1CCOCC1)n1c2cc(-c3c(C)nnn3C)cnc2c2c1c(C(C)(C)O)nn2C (stereo not shown) [Compound 26, 2-(6-(1,4-Dimethyl-1H-1,2,3-triazol-5-yl)-4-((3-methoxypyridin-2-yl)(tetrahydro-2H-pyran-4-yl)methyl)-1-methyl-1,4-dihydropyrazolo[3′,4′:4,5]pyrrolo[3,2-b]pyridin-3-yl)propan-2-ol]
0.35	0.72	Cc1noc(C)c1-c1cnc2c3c(c(C(C)(C)O)nn3C)n([C@H](c3ncccc3F)C3CCOCC3)c2c1 [Compound 2, (S)-2-(6-(3,5-dimethylisoxazol-4-yl)-4-((3-fluoropyridin-2-yl)(tetrahydro-2H-pyran-4-yl)methyl)-1-methyl-1,4-dihydropyrazolo[3′,4′:4,5]pyrrolo[3,2-b]pyridin-3-yl)propan-2-ol]
2.2	34	Cc1nnn(C)c1-c1cnc2c3c(c(C(C)(C)O)nn3C)n(C(CCC(F)(F)F)c3cocn3)c2c1 (stereo not shown) [Compound 10, 2-(6-(1,4-dimethyl-1H-1,2,3-triazol-5-yl)-1-methyl-4-(4,4,4-trifluoro-1-(oxazol-4-yl)butyl)-1,4-dihydropyrazolo[3′,4′:4,5]pyrrolo[3,2-b]pyridin-3-yl)propan-2-ol]
0.99	5.01	Cc1ccccc1C(C1CCOCC1)n1c2cc(-c3c(C)noc3C)cnc2c2c1c(C(C)(C)O)nn2C (stereo not shown) [Compound 9, 2-(6-(3,5-dimethylisoxazol-4-yl)-1-methyl-4-((tetrahydro-2H-pyran-4-yl)(o-tolyl)methyl)-1,4-dihydropyrazolo[3′,4′:4,5]pyrrolo[3,2-b]pyridin-3-yl)propan-2-ol]
0.57	3.13	Cc1nnn(C)c1-c1cnc2c3c(c(C(C)(C)O)nn3C)n(C(CCC(F)(F)F)c3ncccc3F)c2c1 (stereo not shown) [Compound 4, 2-(6-(1,4-Dimethyl-1H-1,2,3-triazol-5-yl)-1-methyl-4-(4,4,4-trifluoro-1-(3-fluoropyridin-2-yl)butyl)-1,4-dihydropyrazolo[3′,4′:4,5]pyrrolo[3,2-b]pyridin-3-yl)propan-2-ol]
0.66	6.06	Cc1nnn(C)c1-c1cnc2c3c(c(C(C)(C)O)nn3C)n(C(CCC(F)(F)F)c3ccccc3)c2c1 (stereo not shown) [Compound 3, 2-(6-(1,4-Dimethyl-1H-1,2,3-triazol-5-yl)-1-methyl-4-(4,4,4-trifluoro-1-phenylbutyl)-1,4-dihydropyrazolo[3′,4′:4,5]pyrrolo[3,2-b]pyridin-3-yl)propan-2-ol]
0.34	2.16	Cc1nnn(C)c1-c1cnc2c3c(c(CN4CCOCC4)nn3C)n(C(c3ccccc3)C3CCOCC3)c2c1 (stereo not shown) [Compound 34, 4-((6-(1,4-dimethyl-1H-1,2,3-triazol-5-yl)-1-methyl-4-(phenyl(tetrahydro-2H-pyran-4-yl)methyl)-1,4-dihydropyrazolo[3′,4′:4,5]pyrrolo[3,2-b]pyridin-3-yl)methyl)morpholine]
